Assay results published in patent US11160875B2, “Therapeutic nanofiber hydrogels for local treatment of brain-related diseases” (THE JOHNS HOPKINS UNIVERSITY, priority 2015, dated 2021).
Non-standard residues stand in square brackets, D forms with d. Residues, ends and D or L forms follow the SMILES beside them. No end group written: not given here. ξ: configuration not given here. *: point of attachment. Paclitaxel(2'-OCO(CH2)3S) = CC(=O)O[C@H]1C(=O)[C@@]2(C)[C@H]([C@H](OC(=O)c3ccccc3)[C@]3(O)C[C@H](OC(=O)[C@H](OC(=O)CCCS*)[C@@H](NC(=O)c4ccccc4)c4ccccc4)C(C)=C1C3(C)C)[C@]1(OC(C)=O)CO[C@@H]1C[C@@H]2O; Palmitoyl = CCCCCCCCCCCCCCCC(=O)*; ξV = CC(C)C(N)C(=O)O

How the values were obtained:
[1] = system: U87 human glioblastoma cells; assay: Hydrogel drug release and cytotoxicity, live/dead cell staining; assay type: cell-based; details: U87, 24 h incubation with hydrogel, near-gel region 1 and peripheral region 2
Description: FIGS. 17A-17F show the in vitro drug release and cytotoxicity study of PTX-buSS-FFFRGDR (SEQ ID NO: 1), PTX-buSS-VVVRGDR (SEQ ID NO: 2), and C16-FFFRGDR (SEQ ID NO: 1) hydrogels against U87 human glioblastoma cells. Live/dead assay cell images after 24 h of incubation with blank culture media (A and D), PTX-buSS-FFFRGDR (SEQ ID NO: 1) (B and E), or C16-FFFRGDR (SEQ ID NO: 1) (C and F).
The in vitro drug release and cytotoxicity of PTX-buSS-FFFRGDR (SEQ ID NO: 1) was assessed and compared to that of C16-FFFRGDR (SEQ ID NO: 1) blank hydrogel against U87 human glioblastoma cells (FIG. 17). Cells were incubated for 24 h with PTX-loaded and PTX-free hydro-gels and cell viability was determined using live/dead cell staining method. Two sections along gradient decaying radius were taken to compare cell viability after treatment with different hydrogels.

[2] = system: 965 human primary brain tumor cells; assay: Cytotoxicity dose-response, SRB assay, 965; assay type: cell-based; details: 965 primary cells, 72 h incubation per FIG. 16 legend
Description: (§1) FIGS. 16A-16B depict the cytotoxicity evaluation of PTX-buSS-FFFRGDR (SEQ ID NO: 1), PTX-buSS-VVVRGDR (SEQ ID NO: 2), and C16-FFFRGDR (SEQ ID NO: 1) against U87 human glioblastoma cells (A) and 965 human primary brain tumor cells (B). Cells were incubated with the PTX or conjugates for 48 h (U87) or 72 h (965) and cell viability was determined by SRB assay. Data are given as mean±s.d. (n=3).
(§2) U87 human glioblastoma cells were provided by Prof. Denis Wirtz's lab (Department of Chemical and Biomolecular Engineering, Johns Hopkins University). Primary human brain cancer cell line 965 was provided by Prof. Alfredo Quinones-Hinojosa of the Johns Hopkins Medical School. All cell lines were cultured according to providers' protocols. U87 human glioblastoma cells were grown in DMEM with 10% FBS and 1% antibiotics. Primary human brain cancer cell line 965 was grown in DEME/F12 with 2% Neuroplex, 1% antibiotics, 20 ng/mL hEGF and 20 ng/mL hFGF.
(§3) The cytotoxicity assays of PTX-FFFRGDR (SEQ ID NO: 1), PTX-VVVRGDR (SEQ ID NO: 2), C16-FFFRGDR (SEQ ID NO: 1) were determined using a dose-response study. A 96-well plate was seeded with cell sat a density of 5×10^3 cells/well and incubated at 37° C. for 24 h. The cells were then treated with varying concentrations of paclitaxel or conjugate in cell medium and incubated for a further 48 h (U87) or 72 h (primary cell lines). Cell viability was determined by sulforhodamine-B (SRB, Sigma Aldrich) assay according to the manufacturer's protocol. The data was fitted using the Hill equation function within the Igor Pro program and used to obtain the IC50 value.
(§4) The in vitro cytotoxicity of PTX-buSS-FFFRGDR (SEQ ID NO: 1) was assessed an compared to that of free PTX, PTX-buSS-VVVRGDR (SEQ ID NO: 2) and C16-FFFRGDR (SEQ ID NO: 1) against two brain tumor cell lines, including U87 human glioblastoma cell line and 965 primary human brain tumor cell line (FIG. 16). Cells were incubated for 48 h with varying drug concentrations and cell viability was determined using sulforhodamine B (SRB) assay. […]

[3] = system: U87 human glioblastoma cells; assay: Cytotoxicity dose-response, SRB assay, U87; assay type: cell-based; details: U87, 48 h incubation
Description: as §1, §2, §3, §4

[4] = Paclitaxel release study in PBS buffer with or without GSH; assay type: physicochemical; details: 37° C., 50 μM, presence or absence of 10 mM GSH
Description: FIGS. 15A-15D illustrate fluorescence measurements to determine the CMC value of PTX-buSS-FFFRGDR (SEQ ID NO: 1) (A) and PTX-buSS-VVVRGDR (SEQ ID NO: 2) (B) based on Nile Red encapsulation within the assembled nanostructures. Representative CD spectra (solid lines) and UV-vis spectra (dash lines) of 200 μM PTX-buSS-FFFRGDR (SEQ ID NO: 1), 200 μM PTX-buSS-VVVRGDR (SEQ ID NO: 2) and 200 μM. C16-FFFRGDR (SEQ ID NO: 1) (C). Paclitaxel release study of PTX-buSS-FFFRGDR (SEQ ID NO: 1) and PTX-buSS-VVVRGDR (SEQ ID NO: 2) in PBS buffer at 37° C. at 50 μM. Solutions were incubated in the presence or absence of 10 mM GSH. Data are given as mean±s.d. (n=3).
Since the release of the active compound is critical and tunable by altering nanofilaments morphologies, experiments to determine PTX release were carried out in PBS buffer at 37° C. in the presence or absence of 10 mM GSH (FIG. 15D).

[5] = system: implanted tumors; assay: In vivo brain tumor resection model
Description: A) A cranial window (5 mm) was made at the same location of tumor implantation, and the tumor was resected with microscissors. A droplet of CPT nanofiber solution was placed in the resected area, forming hydrogels upon delivery. A methacrylate membrane was used to cover the skull defect.
A droplet of CPT-HKD nanofiber solution was placed in the resected area, forming hydrogels upon delivery. A methacrylate membrane was used to cover the skull defect.
Using the in vivo brain tumor resection model described above, mice with implanted tumors were treated with resection of the tumor alone or resection and addition of CPT-HKD hydrogel and the tumor site was subjected to BLI analysis at 1 and 2 weeks post-resection.
Using the in vivo brain tumor resection model described above, mice with implanted tumors were treated with resection of the tumor alone or resection and addition of CPT-HKD hydrogel for 1 month. After the test period, mouse brains were removed and sectioned in 10 μm thick sections and stained using H&E methods. Tumor area was determined by stereological analysis of consecutive 10 μm thick sections. p value was calculated by Mann-Whitney U (p=0.037).

[6] = Hydrogel formation of CPT-HKD nanofibers in DPBS; assay type: physicochemical
Description: (§5) (C) Cumulative release of drug from the hydrogel formed by CPT-HKD (1.2 wt %) over one month. […] (D) Cell viability of primary glioma cells derived from three patients treated by CPT-HKD of varying concentrations.
(§6) CPT-HKD was incubated with primary glioma cells derived from three patients to determine cytotoxicity (FIG. 18D).

[7] = Cumulative release of drug from CPT-HKD hydrogel; assay type: physicochemical
Description: as §5, §6

[8] = system: primary glioma cells derived from three patients; details: varying concentrations
Description: as §5, §6

CCCCCCCCCCCCCCCC(=O)N[C@@H](Cc1ccccc1)C(=O)N[C@@H](Cc1ccccc1)C(=O)N[C@@H](Cc1ccccc1)C(=O)N[C@@H](CCCNC(=N)N)C(=O)NCC(=O)N[C@@H](CC(=O)O)C(=O)N[C@@H](CCCNC(=N)N)C(=O)O [C16-FFFRGDR] (Palmitoyl-FFFRGDR-OH)
cell viability by live/dead staining around the hydrogel [1]: non-toxicity against U87 cells in both regions | in vitro cytotoxicity (cell viability) [2]: didn't show any significant toxicity | in vitro cytotoxicity (cell viability) [3]: didn't show any significant toxicity

CC(=O)N[C@@H](CSSCCCC(=O)O[C@@H](C(=O)O[C@H]1C[C@@]2(O)[C@@H](OC(=O)c3ccccc3)[C@@H]3[C@]4(OC(C)=O)CO[C@@H]4C[C@H](O)[C@@]3(C)C(=O)[C@H](OC(C)=O)C(=C1C)C2(C)C)[C@@H](NC(=O)c1ccccc1)c1ccccc1)C(=O)N[C@@H](Cc1ccccc1)C(=O)N[C@@H](Cc1ccccc1)C(=O)N[C@@H](Cc1ccccc1)C(=O)N[C@@H](CCCNC(=N)N)C(=O)NCC(=O)N[C@@H](CC(=O)O)C(=O)N[C@@H](CCCNC(=N)N)C(=O)O [PTX-buSS-FFFRGDR] (Ac-C(Paclitaxel(2'-OCO(CH2)3S))FFFRGDR-OH)
in vitro cytotoxicity (cell viability) [2]: near-identical toxicity to free PTX | in vitro cytotoxicity (cell viability) [3]: near-identical toxicity to free PTX

CC(=O)N[C@@H](CSSCCCC(=O)O[C@@H](C(=O)O[C@H]1C[C@@]2(O)[C@@H](OC(=O)c3ccccc3)[C@@H]3[C@]4(OC(C)=O)CO[C@@H]4C[C@H](O)[C@@]3(C)C(=O)[C@H](OC(C)=O)C(=C1C)C2(C)C)[C@@H](NC(=O)c1ccccc1)c1ccccc1)C(=O)NCC(=O)N[C@H](C(=O)NC(C(=O)N[C@H](C(=O)N[C@@H](CCCNC(=N)N)C(=O)NCC(=O)N[C@@H](CC(=O)O)C(=O)N[C@@H](CCCNC(=N)N)C(=O)O)C(C)C)C(C)C)C(C)C (stereo partly shown) [PTX-buSS-VVVRGDR] (Ac-C(Paclitaxel(2'-OCO(CH2)3S))GV[ξV]VRGDR-OH)
PTX release rate, with GSH versus without [4]: faster release rates under GSH conditions | in vitro cytotoxicity (cell viability) [2]: near-identical toxicity to free PTX | in vitro cytotoxicity (cell viability) [3]: near-identical toxicity to free PTX

CPT-HKD (GVVQQHKD; also: camptothecin conjugated via buSS linker, site not given here)
BLI signal intensity versus resection only group ([5]; 1 and 2 weeks post-resection, p=0.0076): significant lower intensity | difference in survival versus resection only group ([5]; Kaplan-Meier analysis, p=0.01): extension of one-week | tumor area versus resection only group ([5]; after 1 month of treatment, stereological analysis of 10 μm sections, p=0.037): Reduces Brain Tumor Area | survival (Kaplan-Meier) ([5]; resection plus hydrogel, resection only 35 days, p=0.01): 41 days | concentration at which nanofibers form a hydrogel [6]: higher than 0.4 wt % | hydrogel shape retention ([7]; after one month): retained its shape after one month | cumulative release of drug from the hydrogel ([7]; hydrogel 1.2 wt %, over one month): about 15 % of total bound drug | cytotoxicity (cell viability) [8]: dose dependent cytotoxicity shown in all three cell lines
